# Experimental data from PMC8121805, “Discovery of first-in-class inhibitors of ASH1L histone methyltransferase with anti-leukemic activity” (Nature Communications, 2021).
# Several values for one entry are separate records, joined by “and”; a condition that tells them apart may be missing. Equal entries are not always repeated. Entries after “also recorded” stand apart in the source; their conditions may differ.
# Columns and labels:
# [1] = test system: panel of diverse set of 30 kinases; assay: Profiling with kinases; settings: 25 µM, 1 h incubation
# From the text: This study was outsourced to the Contract Research Organization.
# SET2 cells = assay: MTT cell viability assay; type: cell-based, human
# Protocol: (§1) Human leukemia cells K562, MV4;11 and RS4;11 (purchased from ATCC) and KOPN8, MOLM13 (purchased from DSMZ) were cultured in RPMI 1640 (Invitrogen) supplemented with 10% heat inactivated (h.i.) FBS and 1% penicillin/streptomycin (Invitrogen). SET2 cells (purchased from DSMZ) were cultured in RPMI 1640 supplemented with 20% h.i. FBS and 1% penicillin/streptomycin. Cells were plated at 1 × 10^5 to 2 × 10^5 cells/mL depending on cell line and treated with 0.25% DMSO or varying concentrations of compounds and incubated at 37 °C, 5% CO2 incubator for 7 days. Media was changed on day 3 or 4 and compounds were resupplied. […] Cell suspensions (100 μL) were transferred to the 96-well plates for each sample in quadruplicate at the time of media change. At day 7, 10 µL of MTT reagent (M6494, Molecular Probes™) was added to each well of the 96 well plate and incubated at 37 °C for 4 h. The formazan was then solubilized by adding 100 µL acidified 10% SDS solution and incubated at 37 °C overnight. Plates were read for absorbance at 570 nm using a PHERAstar BMG microplate reader. The experiments were performed two times in quadruplicates with calculation of mean and SD for each condition. Data were analyzed in Prism 8.0.0 to obtain GI50 values.
# RS4;11 cells = assay: MTT cell viability assay; type: cell-based, human; settings: 7 days
# Protocol: as §1
# MV4;11 cells [2] = assay: Flow cytometry of CD11B expression (differentiation); type: cell-based, human; settings: for MV4;11 % CD11B+ cells: 7 days
# Protocol: (§2) In addition, 1 × 10^5 cells per sample were stained with Zombie Aqua™ dye (1:100 dilution) for 15 min using the Zombie Aqua™ Fixable Viability Kit (Zombie Aqua™ Fixable Viability Kit, Biolegend®) […] and then for 30 min with an anti-CD11B-PE antibody (982606, ICRF44, Biolegend®) or anti-CD11B-Pacific Blue (101224, BD BioLegend) antibody at 1:50 dilution, according to the No-wash Sequential Staining Protocol described by the manufacturer (BioLegend, Zombie Aqua Fixable Viability Kit). Cells were washed twice with 500 µL PBS containing 1% FBS and resuspended in 200 µL PBS with 1% FBS.
# KOPN8 cells [3] = assay: as above; type: cell-based, human; settings: 7 days
# Protocol: as §2
# EZH2 = EZH2 (Homo sapiens, UniProt Q15910); assay: HMT selectivity panel; settings: EZH2, 50 µM compound
# Chain of EZH2 (Q15910 whole entry, species assumed, the tested form may be a part): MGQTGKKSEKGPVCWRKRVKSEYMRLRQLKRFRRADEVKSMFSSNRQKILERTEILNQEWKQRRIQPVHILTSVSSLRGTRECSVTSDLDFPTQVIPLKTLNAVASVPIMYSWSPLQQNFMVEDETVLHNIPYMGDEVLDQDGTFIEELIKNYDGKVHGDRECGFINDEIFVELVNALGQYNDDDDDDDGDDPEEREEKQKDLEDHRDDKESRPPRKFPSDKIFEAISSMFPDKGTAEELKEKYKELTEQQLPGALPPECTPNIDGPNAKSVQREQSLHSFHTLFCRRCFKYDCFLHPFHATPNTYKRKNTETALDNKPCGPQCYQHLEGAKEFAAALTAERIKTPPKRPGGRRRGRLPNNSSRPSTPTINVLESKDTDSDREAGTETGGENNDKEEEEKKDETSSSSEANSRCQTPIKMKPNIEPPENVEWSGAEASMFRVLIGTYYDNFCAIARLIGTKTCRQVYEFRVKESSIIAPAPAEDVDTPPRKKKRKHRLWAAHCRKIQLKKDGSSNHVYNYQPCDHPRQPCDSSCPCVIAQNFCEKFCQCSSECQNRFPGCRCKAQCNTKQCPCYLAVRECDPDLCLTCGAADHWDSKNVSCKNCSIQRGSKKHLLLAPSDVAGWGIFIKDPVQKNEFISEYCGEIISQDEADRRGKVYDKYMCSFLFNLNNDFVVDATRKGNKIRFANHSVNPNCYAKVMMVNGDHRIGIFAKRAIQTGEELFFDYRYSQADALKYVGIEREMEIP
# Chain of EZH2 (O75530 whole entry partner, species assumed, the tested form may be a part): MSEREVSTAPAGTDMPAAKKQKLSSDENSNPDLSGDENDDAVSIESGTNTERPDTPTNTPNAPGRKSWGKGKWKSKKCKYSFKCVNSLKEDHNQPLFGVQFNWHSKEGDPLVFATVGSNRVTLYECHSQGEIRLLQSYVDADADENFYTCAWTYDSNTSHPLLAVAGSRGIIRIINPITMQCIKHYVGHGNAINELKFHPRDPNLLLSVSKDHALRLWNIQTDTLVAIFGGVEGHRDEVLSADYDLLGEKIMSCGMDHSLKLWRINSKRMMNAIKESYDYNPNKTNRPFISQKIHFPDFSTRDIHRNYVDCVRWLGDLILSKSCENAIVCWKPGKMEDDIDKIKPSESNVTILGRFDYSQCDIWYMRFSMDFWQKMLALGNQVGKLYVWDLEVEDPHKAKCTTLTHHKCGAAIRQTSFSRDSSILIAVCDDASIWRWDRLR
# Chain of EZH2 (Q15022 whole entry partner, species assumed, the tested form may be a part): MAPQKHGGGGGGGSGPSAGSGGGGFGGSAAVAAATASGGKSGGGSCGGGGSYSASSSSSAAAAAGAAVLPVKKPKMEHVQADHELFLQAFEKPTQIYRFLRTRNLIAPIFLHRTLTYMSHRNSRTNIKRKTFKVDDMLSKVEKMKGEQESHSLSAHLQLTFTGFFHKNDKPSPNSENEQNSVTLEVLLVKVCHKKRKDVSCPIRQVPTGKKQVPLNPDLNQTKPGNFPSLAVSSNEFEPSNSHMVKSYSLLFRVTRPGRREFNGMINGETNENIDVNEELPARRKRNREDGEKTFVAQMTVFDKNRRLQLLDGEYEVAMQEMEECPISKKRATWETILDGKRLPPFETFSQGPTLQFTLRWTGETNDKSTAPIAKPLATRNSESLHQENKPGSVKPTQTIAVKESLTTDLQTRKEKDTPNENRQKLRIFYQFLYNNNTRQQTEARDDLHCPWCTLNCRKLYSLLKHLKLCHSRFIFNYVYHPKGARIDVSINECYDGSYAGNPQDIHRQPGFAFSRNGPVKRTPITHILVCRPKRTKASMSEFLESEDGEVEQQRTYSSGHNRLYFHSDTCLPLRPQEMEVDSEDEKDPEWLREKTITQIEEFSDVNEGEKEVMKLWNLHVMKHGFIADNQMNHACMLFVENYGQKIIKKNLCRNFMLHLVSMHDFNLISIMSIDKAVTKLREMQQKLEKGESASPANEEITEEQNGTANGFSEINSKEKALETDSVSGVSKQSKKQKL
# Protocol: (§3) mM DTT and 0.01% Triton X-100 was used in experiments containing core histone.
# experiments containing nucleosome.
# G9a 5 core histone 0.05 mg/mL 1
# GLP 5 core histone 0.05 mg/mL 1
# [4] = test system: MLL fusion target genes in MOLM13 cells; assay: Real time qRT-PCR gene expression; type: cell-based, human; set-up: key to MEIS1 expression / FLT3 expression / HOXA9 expression / MNDA expression / MEF2C expression / DLX2 expression: fold change vs DMSO-treated cells, normalized to HPRT1 (comparative Ct); settings: for DLX2 expression / FLT3 expression / HOXA9 expression / MEF2C expression / MEIS1 expression / MNDA expression: MOLM13, 7 days, normalized to HPRT1, referenced to DMSO
# Protocol: 0.5 × 10^6 – 3 × 10^6 cells from each sample were collected at days 7 or 8 of treatment, centrifuged at 211 xg, and RNA was extracted according to the RNeasy Mini Kit protocol (74106, Qiagen). Extracted RNA was quantified using Nanodrop 2000 UV-Vis spectrophotometer and 0.5–1 µg of total RNA was reverse transcribed into cDNA using High-Capacity cDNA Reverse Transcription Kit (4368814, Applied Biosystems™) according to the manufacturer’s protocol. Real-time PCR was performed using the CFX96 Touch Real-Time PCR Detection System (Bio-Rad). TaqMan Gene Expression Master Mix and TaqMan Gene Expression Assays were purchased from Applied Biosystems. Relative quantification of each gene transcript was carried out using the comparative Ct method as described in the Applied Biosystems User Bulletin no. 2. TaqMan Gene Expression Assays were used: HPRT1: Hs02800695_m1, DLX2: Hs00269993_m1, FLT3: Hs00174690_m1, HOXA9: Hs00365956_m1, MEF2C: Hs00231149_m1, MEIS1: Hs00180020_m1, MNDA: Hs00935905_m1.
# Supplementary Figure 10. Effect of AS-nc on gene expression in MLL leukemia cells. (a, b) Quantitative RT-PCR performed in MOLM13 cells (a) or MV4;11 cells (b) after 7 days of treatment with AS-nc. Gene expression was normalized to HPRT1 and referenced to the DMSO treated cells. Representative data from two independent experiments, each performed in triplicates, […]
# KOPN8 cells [5] = assay: Annexin V apoptosis assay (flow cytometry); type: cell-based, human; settings: 7 days
# MV4;11 cells [6] = assay: Annexin V apoptosis assay (flow cytometry); type: cell-based, human; settings: for MV4;11 % Annexin V/PI+ cells: 7 days
# PRMT3 = PRMT3 (Homo sapiens, UniProt O60678); assay: HMT selectivity panel; settings: PRMT3, 50 µM compound
# Chain of PRMT3 (O60678 whole entry, species assumed): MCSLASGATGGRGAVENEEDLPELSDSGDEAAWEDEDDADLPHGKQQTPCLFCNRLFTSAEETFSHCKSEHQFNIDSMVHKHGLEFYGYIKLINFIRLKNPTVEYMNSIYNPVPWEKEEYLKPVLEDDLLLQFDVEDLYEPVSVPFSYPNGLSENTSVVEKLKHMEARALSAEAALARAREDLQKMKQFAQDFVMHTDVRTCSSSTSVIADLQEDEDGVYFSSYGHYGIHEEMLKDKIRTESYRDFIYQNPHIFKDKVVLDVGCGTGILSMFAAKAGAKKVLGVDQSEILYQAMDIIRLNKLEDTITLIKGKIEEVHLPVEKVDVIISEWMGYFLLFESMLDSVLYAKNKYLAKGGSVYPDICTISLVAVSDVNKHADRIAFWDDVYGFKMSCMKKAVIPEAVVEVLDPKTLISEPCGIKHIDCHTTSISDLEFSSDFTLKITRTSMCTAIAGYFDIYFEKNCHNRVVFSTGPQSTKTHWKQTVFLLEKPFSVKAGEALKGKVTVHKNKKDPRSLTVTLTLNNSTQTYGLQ
# From the text: as §3
compound,measurement,setting,value
CN1CC(C(=O)NCc2ccc3c(-c4cccc(C(N)=S)c4)cn(C4CCN(S(=O)(=O)C(F)(F)F)CC4)c3c2)C1 [AS-99],inhibition in a panel of representative kinases,[1],does not inhibit strongly; also recorded: did not show substantial inhibition
same,GI50,"SET2 cells; Homo sapiens, SET-2, 168 h, SET2 (non MLL1-r), MTT, 7 days",> 12 µM
same,% activity SET2,"SET2 cells; MTT, 7 days, log[compound] -4.92082",96.0299% and 95.2049% and 87.6257% and 88.1928%
same,% activity SET2,"SET2 cells; MTT, 7 days, log[compound] -5.22185",99.0204% and 97.9376% and 92.5754% and 93.5035%
same,% activity SET2,"SET2 cells; MTT, 7 days, log[compound] -5.52288",97.5767% and 104.589% and 99.7938% and 98.0407%
same,% activity SET2,"SET2 cells; MTT, 7 days, log[compound] -5.82391",91.6473% and 94.4831% and 88.9662% and 87.9866%
same,% activity SET2,"SET2 cells; MTT, 7 days, log[compound] -6.12494",83.7071% and 89.6365% and 81.1807% and 83.8618%
same,% activity SET2,"SET2 cells; MTT, 7 days, log[compound] -6.42597",83.5525% and 88.76% and 84.5321% and 85.1508%
same,% activity SET2,"SET2 cells; MTT, 7 days, log[compound] -6.727",86.1304% and 85.9242% and 90.513% and 87.1101%
same,effect on proliferation of SET2 cells,SET2 cells; leukemia cells without MLL1 translocations,no or limited effects at 10 µM or higher concentrations
same,% activity RS4;11,RS4;11 cells; log[compound] -4.92082,2.655% and 2.343% and 2.187%
same,% activity RS4;11,RS4;11 cells; log[compound] -5.22185,2.03% and 1.718% and 1.874% and 2.655%
same,% activity RS4;11,RS4;11 cells; log[compound] -5.52288,64.3499% and 67.786% and 71.3784%
same,% activity RS4;11,RS4;11 cells; log[compound] -5.82391,99.4924% and 89.8087% and 86.9973% and 90.4334%
same,% activity RS4;11,RS4;11 cells; log[compound] -6.12494,82.4678% and 84.9668% and 84.4982% and 89.3401%
same,% activity RS4;11,RS4;11 cells; log[compound] -6.42597,93.2448% and 101.679% and 103.397%
same,GI50,"RS4;11 cells; Homo sapiens, 168 h, RS4;11 (MLL1-r)",3.4 ± 0.1 µM
same,MV4;11 % CD11B+ cells,MV4;11 cells [2]; 3 uM,3.77% and 4.48% and 6.27%
same,MV4;11 % CD11B+ cells,MV4;11 cells [2]; 6 uM,35.3% and 55.8% and 53.8%
same,differentiation in MLL leukemia cells,MV4;11 cells [2]; MV4;11 and KOPN8,induced differentiation
same,increased expression of the CD11B differentiation marker,MV4;11 cells [2]; MV4;11 and KOPN8,up to 50%
same,KOPN8 % CD11B+ cells,KOPN8 cells [3]; 1 uM,5.69% and 3.82% and 3.42%
same,KOPN8 % CD11B+ cells,KOPN8 cells [3]; 2 uM,7.78% and 8.76% and 7.98%
same,KOPN8 % CD11B+ cells,KOPN8 cells [3]; 3 uM,12.9% and 10.3% and 9.53%
same,KOPN8 % CD11B+ cells,KOPN8 cells [3]; 4 uM,24.5% and 25.6%
same,activity at 50 µM,EZH2,101%
same,% activity,EZH2; 50 µM,119.029%
same,DLX2 expression,[4]; 2 uM,0.56 and 0.75 and 0.61
same,FLT3 expression,[4]; 2 uM,0.69 and 0.97 and 0.78
same,HOXA9 expression,[4]; 2 uM,0.72 and 0.91 and 0.9
same,MEF2C expression,[4]; 2 uM,0.67 and 0.89 and 0.83
same,MEIS1 expression,[4]; 2 uM,0.79 and 0.98 and 0.9
same,MNDA expression,[4]; 2 uM,1.83 and 1.84 and 1.74
same,DLX2 expression,[4]; 4 uM,0.44 and 0.5 and 0.58
same,FLT3 expression,[4]; 4 uM,0.67 and 0.76 and 0.61
same,HOXA9 expression,[4]; 4 uM,0.76 and 0.94 and 0.79
same,MEF2C expression,[4]; 4 uM,0.59 and 0.77 and 0.68
same,MEIS1 expression,[4]; 4 uM,0.89 and 0.77 and 0.75
same,MNDA expression,[4]; 4 uM,2.92 and 2.39 and 3.74
same,DLX2 expression,[4]; 6 uM,0.53 and 0.54 and 0.7
same,FLT3 expression,[4]; 6 uM,0.53 and 0.65 and 0.5
same,HOXA9 expression,[4]; 6 uM,0.69 and 0.9 and 0.7
same,MEF2C expression,[4]; 6 uM,0.48 and 0.65 and 0.64
same,MEIS1 expression,[4]; 6 uM,0.71 and 0.74 and 0.69
same,MNDA expression,[4]; 6 uM,3.99 and 3.93 and 2.86
same,expression level of the MNDA differentiation marker,[4]; MOLM13 and MV4;11,substantial increase
same,"expression of MLL fusion target genes (MEF2C, DLX2, FLT3, HOXA9)",[4]; MOLM13 and MV4;11,dose-dependent downregulation
same,KOPN8 % Annexin V/PI+ cells,KOPN8 cells [5]; 1 uM,4.46% and 5.06% and 4.65%
same,KOPN8 % Annexin V/PI+ cells,KOPN8 cells [5]; 2 uM,6.92% and 8.33% and 6.49%
same,KOPN8 % Annexin V/PI+ cells,KOPN8 cells [5]; 3 uM,6.23% and 7.5% and 8.51%
same,KOPN8 % Annexin V/PI+ cells,KOPN8 cells [5]; 4 uM,31.1% and 33%
same,MV4;11 % Annexin V/PI+ cells,MV4;11 cells [6]; 3 uM,5.84% and 5.81% and 5.56%
same,MV4;11 % Annexin V/PI+ cells,MV4;11 cells [6]; 4.5 uM,21.9% and 12.8%
same,apoptosis in the MLL leukemia cells (Annexin V positive cells),MV4;11 cells [6]; MV4;11 and KOPN8,induced apoptosis
same,activity at 50 µM,PRMT3,106%
same,% activity,PRMT3; 50 µM,114.852%
